Laboratory results reported in article PMC4767141, “Discovery of Potent, Orally Bioavailable, Small-Molecule Inhibitors of WNT Signaling from a Cell-Based Pathway Screen” (Journal of Medicinal Chemistry, 2015).

How the values were obtained:
EPHB4 = biological target: T1, EPHB4 (Homo sapiens, UniProt P54760); experiment: Millipore kinase panel; type: biochemical; conditions: read-out: % Control
T1 construct: purchased Millipore KinaseProfiler (kinases); Cerep (receptors and ion channels)

SRPK2 = biological target: T2, SRPK2 (Homo sapiens, UniProt P78362); experiment: Millipore kinase panel; type: biochemical; conditions: read-out: % Control
T2 construct: purchased Millipore KinaseProfiler (kinases); Cerep (receptors and ion channels)

ERBB4 = biological target: T3, ERBB4 (Homo sapiens, UniProt Q15303); experiment: Millipore kinase panel; type: biochemical; conditions: read-out: % Control
T3 construct: purchased Millipore KinaseProfiler (kinases); Cerep (receptors and ion channels)

GCK = biological target: T4, GCK (Homo sapiens, UniProt Q12851); experiment: Millipore kinase panel; type: biochemical; conditions: read-out: % Control
T4 construct: purchased Millipore KinaseProfiler (kinases); Cerep (receptors and ion channels)

5-HT1A (h) = biological target: T5, 5-HT1A (h) (Homo sapiens, UniProt P08908); experiment: CEREP binding panel; conditions: agonist radioligand, read-out: % Inhibition of Control Specific Binding
T5 construct: purchased Millipore KinaseProfiler (kinases); Cerep (receptors and ion channels)

LOK = biological target: T6, LOK (Homo sapiens, UniProt O94804); experiment: Millipore kinase panel; type: biochemical; conditions: read-out: % Control
T6 construct: purchased Millipore KinaseProfiler (kinases); Cerep (receptors and ion channels)

WNK2 = biological target: T7, WNK2 (Homo sapiens, UniProt Q9Y3S1); experiment: Millipore kinase panel; type: biochemical; conditions: read-out: % Control
T7 construct: purchased Millipore KinaseProfiler (kinases); Cerep (receptors and ion channels)

PASK = biological target: T8, PASK (Homo sapiens, UniProt Q96RG2); experiment: Millipore kinase panel; type: biochemical; conditions: read-out: % Control
T8 construct: purchased Millipore KinaseProfiler (kinases); Cerep (receptors and ion channels)

SAPK4 = biological target: T9, SAPK4 (Homo sapiens, UniProt O15264); experiment: Millipore kinase panel; type: biochemical; conditions: read-out: % Control
T9 construct: purchased Millipore KinaseProfiler (kinases); Cerep (receptors and ion channels)

TEC ACTIVATED = biological target: T10, TEC ACTIVATED (Homo sapiens, UniProt P42680); experiment: Millipore kinase panel; type: biochemical; conditions: read-out: % Control
T10 construct: purchased Millipore KinaseProfiler (kinases); Cerep (receptors and ion channels)

CK2 = biological target: T11, CK2 (Homo sapiens, UniProt P68400); experiment: Millipore kinase panel; type: biochemical; conditions: read-out: % Control
T11 construct: purchased Millipore KinaseProfiler (kinases); Cerep (receptors and ion channels)

CRAF = biological target: T12, CRAF (Homo sapiens, UniProt P04049); experiment: Millipore kinase panel; type: biochemical; conditions: read-out: % Control
T12 construct: purchased Millipore KinaseProfiler (kinases); Cerep (receptors and ion channels)

FMS = biological target: T13, FMS (Homo sapiens, UniProt P07333); experiment: Millipore kinase panel; type: biochemical; conditions: read-out: % Control
T13 construct: purchased Millipore KinaseProfiler (kinases); Cerep (receptors and ion channels)

DCAMKL2 = biological target: T14, DCAMKL2 (Homo sapiens, UniProt Q8N568); experiment: Millipore kinase panel; type: biochemical; conditions: read-out: % Control
T14 construct: purchased Millipore KinaseProfiler (kinases); Cerep (receptors and ion channels)

PKD2 = biological target: T15, PKD2 (Homo sapiens, UniProt Q9BZL6); experiment: Millipore kinase panel; type: biochemical; conditions: read-out: % Control
T15 construct: purchased Millipore KinaseProfiler (kinases); Cerep (receptors and ion channels)

A2A (h) = biological target: T16, A2A (h) (Homo sapiens, UniProt P29274); experiment: CEREP binding panel; conditions: agonist radioligand, read-out: % Inhibition of Control Specific Binding
T16 construct: purchased Millipore KinaseProfiler (kinases); Cerep (receptors and ion channels)

MRCKBETA = biological target: T17, MRCKBETA (Homo sapiens, UniProt Q9Y5S2); experiment: Millipore kinase panel; type: biochemical; conditions: read-out: % Control
T17 construct: purchased Millipore KinaseProfiler (kinases); Cerep (receptors and ion channels)

MKK7BETA = biological target: T18, MKK7BETA (Homo sapiens, UniProt O14733); experiment: Millipore kinase panel; type: biochemical; conditions: read-out: % Control
T18 construct: purchased Millipore KinaseProfiler (kinases); Cerep (receptors and ion channels)

SAPK2A = biological target: T19, SAPK2A (Homo sapiens, UniProt Q16539); experiment: Millipore kinase panel; type: biochemical; conditions: read-out: % Control
T19 construct: purchased Millipore KinaseProfiler (kinases); Cerep (receptors and ion channels)

EEF-2K = biological target: T20, EEF-2K (Homo sapiens, UniProt O00418); experiment: Millipore kinase panel; type: biochemical; conditions: read-out: % Control
T20 construct: purchased Millipore KinaseProfiler (kinases); Cerep (receptors and ion channels)

PKA = biological target: T21, PKA (Homo sapiens, UniProt P17612); experiment: Millipore kinase panel; type: biochemical; conditions: read-out: % Control
T21 construct: purchased Millipore KinaseProfiler (kinases); Cerep (receptors and ion channels)

BRSK1 = biological target: T22, BRSK1 (Homo sapiens, UniProt Q8TDC3); experiment: Millipore kinase panel; type: biochemical; conditions: read-out: % Control
T22 construct: purchased Millipore KinaseProfiler (kinases); Cerep (receptors and ion channels)

FES = biological target: T23, FES (Homo sapiens, UniProt P07332); experiment: Millipore kinase panel; type: biochemical; conditions: read-out: % Control
T23 construct: purchased Millipore KinaseProfiler (kinases); Cerep (receptors and ion channels)

SGK = biological target: T24, SGK (Homo sapiens, UniProt O00141); experiment: Millipore kinase panel; type: biochemical; conditions: read-out: % Control
T24 construct: purchased Millipore KinaseProfiler (kinases); Cerep (receptors and ion channels)

5-HT2B (h) = biological target: T25, 5-HT2B (h) (Homo sapiens, UniProt P41595); experiment: CEREP binding panel; conditions: agonist radioligand, read-out: % Inhibition of Control Specific Binding
T25 construct: purchased Millipore KinaseProfiler (kinases); Cerep (receptors and ion channels)

SKCa channel = experiment: CEREP binding panel; conditions: 10 μM, antagonist radioligand
CDK7/CYCLINH/MAT1 = biological target: T26, CDK7/CYCLINH/MAT1 (Homo sapiens, UniProt P50613); experiment: Millipore kinase panel; type: biochemical; conditions: read-out: % Control
T26 construct: purchased Millipore KinaseProfiler (kinases); Cerep (receptors and ion channels)

IKKBETA = biological target: T27, IKKBETA (Homo sapiens, UniProt O14920); experiment: Millipore kinase panel; type: biochemical; conditions: read-out: % Control
T27 construct: purchased Millipore KinaseProfiler (kinases); Cerep (receptors and ion channels)

PHKGAMMA2 = biological target: T28, PHKGAMMA2 (Homo sapiens, UniProt P15735); experiment: Millipore kinase panel; type: biochemical; conditions: read-out: % Control
T28 construct: purchased Millipore KinaseProfiler (kinases); Cerep (receptors and ion channels)

JNK3 = biological target: T29, JNK3 (Homo sapiens, UniProt P53779); experiment: Millipore kinase panel; type: biochemical; conditions: read-out: % Control
T29 construct: purchased Millipore KinaseProfiler (kinases); Cerep (receptors and ion channels)

PIM-1 = biological target: T30, PIM-1 (Homo sapiens, UniProt P11309); experiment: Millipore kinase panel; type: biochemical; conditions: read-out: % Control
T30 construct: purchased Millipore KinaseProfiler (kinases); Cerep (receptors and ion channels)

EPHA8 = biological target: T31, EPHA8 (Homo sapiens, UniProt P29322); experiment: Millipore kinase panel; type: biochemical; conditions: read-out: % Control
T31 construct: purchased Millipore KinaseProfiler (kinases); Cerep (receptors and ion channels)

JAK3 = biological target: T32, JAK3 (Homo sapiens, UniProt P52333); experiment: Millipore kinase panel; type: biochemical; conditions: read-out: % Control
T32 construct: purchased Millipore KinaseProfiler (kinases); Cerep (receptors and ion channels)

ALK4 = biological target: T33, ALK4 (Homo sapiens, UniProt P36896); experiment: Millipore kinase panel; type: biochemical; conditions: read-out: % Control
T33 construct: purchased Millipore KinaseProfiler (kinases); Cerep (receptors and ion channels)

RSK1 = biological target: T34, RSK1 (Homo sapiens, UniProt Q15418); experiment: Millipore kinase panel; type: biochemical; conditions: read-out: % Control
T34 construct: purchased Millipore KinaseProfiler (kinases); Cerep (receptors and ion channels)

α1 (non-selective) = experiment: CEREP binding panel; conditions: 10 μM, antagonist radioligand
ETA (h) = biological target: T35, ETA (h) (Homo sapiens, UniProt P25101); experiment: CEREP binding panel; conditions: agonist radioligand, read-out: % Inhibition of Control Specific Binding
T35 construct: purchased Millipore KinaseProfiler (kinases); Cerep (receptors and ion channels)

CLK3 = biological target: T36, CLK3 (Homo sapiens, UniProt P49761); experiment: Millipore kinase panel; type: biochemical; conditions: read-out: % Control
T36 construct: purchased Millipore KinaseProfiler (kinases); Cerep (receptors and ion channels)

CDK9/CYCLINT1 = biological target: T37, CDK9/CYCLINT1 (Homo sapiens, UniProt P50750); experiment: Millipore kinase panel; type: biochemical; conditions: read-out: % Control
T37 construct: purchased Millipore KinaseProfiler (kinases); Cerep (receptors and ion channels)

5-HT7 (h) = biological target: T38, 5-HT7 (h) (Homo sapiens, UniProt P34969); experiment: CEREP binding panel; conditions: agonist radioligand, read-out: % Inhibition of Control Specific Binding
T38 construct: purchased Millipore KinaseProfiler (kinases); Cerep (receptors and ion channels)

CLK2 = biological target: T39, CLK2 (Homo sapiens, UniProt P49760); experiment: Millipore kinase panel; type: biochemical; conditions: read-out: % Control
T39 construct: purchased Millipore KinaseProfiler (kinases); Cerep (receptors and ion channels)

GRK5 = biological target: T40, GRK5 (Homo sapiens, UniProt P34947); experiment: Millipore kinase panel; type: biochemical; conditions: read-out: % Control
T40 construct: purchased Millipore KinaseProfiler (kinases); Cerep (receptors and ion channels)

FLT4 = biological target: T41, FLT4 (Homo sapiens, UniProt P35916); experiment: Millipore kinase panel; type: biochemical; conditions: read-out: % Control
T41 construct: purchased Millipore KinaseProfiler (kinases); Cerep (receptors and ion channels)

5-HT transporter (h) = biological target: T42, 5-HT transporter (h) (Homo sapiens, UniProt P31645); experiment: CEREP binding panel; conditions: antagonist radioligand, read-out: % Inhibition of Control Specific Binding
T42 construct: purchased Millipore KinaseProfiler (kinases); Cerep (receptors and ion channels)
T42 sequence (P31645 whole entry): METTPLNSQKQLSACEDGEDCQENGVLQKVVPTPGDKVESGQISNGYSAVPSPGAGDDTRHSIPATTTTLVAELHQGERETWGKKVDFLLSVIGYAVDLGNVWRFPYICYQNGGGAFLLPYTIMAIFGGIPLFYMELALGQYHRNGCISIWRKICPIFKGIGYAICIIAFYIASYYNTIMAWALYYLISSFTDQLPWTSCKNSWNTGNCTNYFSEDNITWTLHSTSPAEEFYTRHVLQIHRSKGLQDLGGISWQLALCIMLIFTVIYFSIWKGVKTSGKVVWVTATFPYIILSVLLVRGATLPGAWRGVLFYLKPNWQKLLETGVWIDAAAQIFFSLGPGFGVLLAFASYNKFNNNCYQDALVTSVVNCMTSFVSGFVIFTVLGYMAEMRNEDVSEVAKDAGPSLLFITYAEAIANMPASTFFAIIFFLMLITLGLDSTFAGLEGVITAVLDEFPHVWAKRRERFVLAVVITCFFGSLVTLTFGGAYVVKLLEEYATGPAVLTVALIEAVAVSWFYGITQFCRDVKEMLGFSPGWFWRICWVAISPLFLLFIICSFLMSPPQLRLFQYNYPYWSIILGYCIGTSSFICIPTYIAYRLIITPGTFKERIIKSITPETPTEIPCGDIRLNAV

T4 sequence (Q12851 whole entry): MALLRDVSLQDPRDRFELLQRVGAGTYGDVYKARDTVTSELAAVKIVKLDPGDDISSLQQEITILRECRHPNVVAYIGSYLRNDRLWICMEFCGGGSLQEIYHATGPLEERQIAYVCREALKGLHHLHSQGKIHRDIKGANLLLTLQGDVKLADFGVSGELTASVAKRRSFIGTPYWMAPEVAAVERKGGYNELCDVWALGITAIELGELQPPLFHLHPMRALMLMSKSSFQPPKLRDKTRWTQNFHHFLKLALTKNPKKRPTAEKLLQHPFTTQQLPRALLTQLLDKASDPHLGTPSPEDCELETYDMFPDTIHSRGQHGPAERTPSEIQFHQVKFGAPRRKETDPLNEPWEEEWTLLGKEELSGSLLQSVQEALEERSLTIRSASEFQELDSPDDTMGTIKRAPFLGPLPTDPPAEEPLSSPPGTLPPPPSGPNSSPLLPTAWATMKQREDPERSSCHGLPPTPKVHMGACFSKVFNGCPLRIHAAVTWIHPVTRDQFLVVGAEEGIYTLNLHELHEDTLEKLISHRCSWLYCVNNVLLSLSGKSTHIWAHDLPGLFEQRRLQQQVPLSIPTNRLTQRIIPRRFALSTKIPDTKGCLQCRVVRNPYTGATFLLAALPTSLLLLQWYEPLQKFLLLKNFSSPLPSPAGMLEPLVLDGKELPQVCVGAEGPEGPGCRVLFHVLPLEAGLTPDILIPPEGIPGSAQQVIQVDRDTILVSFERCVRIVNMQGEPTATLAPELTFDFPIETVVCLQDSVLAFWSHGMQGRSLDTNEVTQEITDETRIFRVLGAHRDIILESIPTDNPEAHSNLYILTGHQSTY
T3 sequence (Q15303 26-1308): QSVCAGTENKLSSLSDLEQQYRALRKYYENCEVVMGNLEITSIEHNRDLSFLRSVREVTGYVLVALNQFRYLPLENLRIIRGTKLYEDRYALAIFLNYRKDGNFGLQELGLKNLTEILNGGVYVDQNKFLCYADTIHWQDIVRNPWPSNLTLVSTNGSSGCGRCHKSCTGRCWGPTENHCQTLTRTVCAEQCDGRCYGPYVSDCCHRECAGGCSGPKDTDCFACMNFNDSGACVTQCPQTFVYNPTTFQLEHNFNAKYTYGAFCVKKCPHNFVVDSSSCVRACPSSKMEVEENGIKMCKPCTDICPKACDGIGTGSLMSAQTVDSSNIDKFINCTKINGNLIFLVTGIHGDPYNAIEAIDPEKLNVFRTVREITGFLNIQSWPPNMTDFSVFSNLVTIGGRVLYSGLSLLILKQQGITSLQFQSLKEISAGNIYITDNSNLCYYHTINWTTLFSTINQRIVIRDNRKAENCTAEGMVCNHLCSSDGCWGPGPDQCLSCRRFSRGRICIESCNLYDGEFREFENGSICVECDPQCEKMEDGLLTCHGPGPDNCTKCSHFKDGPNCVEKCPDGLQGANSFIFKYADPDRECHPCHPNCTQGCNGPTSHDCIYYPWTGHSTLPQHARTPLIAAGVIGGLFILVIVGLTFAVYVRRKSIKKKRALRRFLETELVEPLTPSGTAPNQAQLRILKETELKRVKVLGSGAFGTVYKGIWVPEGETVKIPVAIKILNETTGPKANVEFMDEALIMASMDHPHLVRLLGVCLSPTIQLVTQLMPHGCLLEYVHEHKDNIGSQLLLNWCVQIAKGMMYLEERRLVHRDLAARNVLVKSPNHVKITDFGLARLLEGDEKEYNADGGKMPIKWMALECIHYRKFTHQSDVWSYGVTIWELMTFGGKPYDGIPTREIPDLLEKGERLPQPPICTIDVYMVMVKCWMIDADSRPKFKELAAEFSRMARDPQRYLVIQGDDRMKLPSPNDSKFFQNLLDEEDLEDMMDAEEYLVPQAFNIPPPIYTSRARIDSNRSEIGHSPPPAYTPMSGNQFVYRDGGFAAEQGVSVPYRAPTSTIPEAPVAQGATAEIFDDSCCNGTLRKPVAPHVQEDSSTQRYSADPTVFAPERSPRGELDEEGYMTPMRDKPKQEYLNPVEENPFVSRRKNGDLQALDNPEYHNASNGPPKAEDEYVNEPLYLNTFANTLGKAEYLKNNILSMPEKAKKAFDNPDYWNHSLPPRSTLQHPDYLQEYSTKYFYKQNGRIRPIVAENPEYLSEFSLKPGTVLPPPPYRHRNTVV
T32 sequence (P52333 whole entry): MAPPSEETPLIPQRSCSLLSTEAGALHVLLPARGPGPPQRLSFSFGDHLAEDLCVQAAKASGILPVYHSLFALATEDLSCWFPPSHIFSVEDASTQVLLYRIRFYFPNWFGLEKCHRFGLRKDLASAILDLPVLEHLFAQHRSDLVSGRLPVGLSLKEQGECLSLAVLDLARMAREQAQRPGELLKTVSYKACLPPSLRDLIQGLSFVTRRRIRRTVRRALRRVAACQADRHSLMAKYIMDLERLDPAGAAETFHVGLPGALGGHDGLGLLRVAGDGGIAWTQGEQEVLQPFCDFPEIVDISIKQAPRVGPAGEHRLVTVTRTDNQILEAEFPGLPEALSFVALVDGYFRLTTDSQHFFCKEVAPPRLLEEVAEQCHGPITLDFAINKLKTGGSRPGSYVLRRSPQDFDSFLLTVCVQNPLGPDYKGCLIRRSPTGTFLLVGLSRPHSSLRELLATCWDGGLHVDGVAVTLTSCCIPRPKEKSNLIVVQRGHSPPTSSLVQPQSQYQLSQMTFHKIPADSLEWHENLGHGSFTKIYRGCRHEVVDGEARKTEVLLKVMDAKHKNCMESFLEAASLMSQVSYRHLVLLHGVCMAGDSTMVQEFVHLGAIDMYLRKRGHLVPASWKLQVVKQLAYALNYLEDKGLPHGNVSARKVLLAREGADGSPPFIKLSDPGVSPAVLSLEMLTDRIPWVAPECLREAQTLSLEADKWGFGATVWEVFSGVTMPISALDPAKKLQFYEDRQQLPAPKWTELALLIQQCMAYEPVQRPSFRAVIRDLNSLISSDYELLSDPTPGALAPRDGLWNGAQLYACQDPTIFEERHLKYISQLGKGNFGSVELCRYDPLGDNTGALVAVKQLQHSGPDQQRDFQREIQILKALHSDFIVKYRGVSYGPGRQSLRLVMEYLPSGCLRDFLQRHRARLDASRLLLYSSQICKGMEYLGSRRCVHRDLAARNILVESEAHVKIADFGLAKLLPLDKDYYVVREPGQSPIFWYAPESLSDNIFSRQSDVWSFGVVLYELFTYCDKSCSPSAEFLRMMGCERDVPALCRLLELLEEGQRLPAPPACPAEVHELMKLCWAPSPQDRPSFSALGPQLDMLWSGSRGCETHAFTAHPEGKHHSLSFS
T36 sequence (P49761 whole entry): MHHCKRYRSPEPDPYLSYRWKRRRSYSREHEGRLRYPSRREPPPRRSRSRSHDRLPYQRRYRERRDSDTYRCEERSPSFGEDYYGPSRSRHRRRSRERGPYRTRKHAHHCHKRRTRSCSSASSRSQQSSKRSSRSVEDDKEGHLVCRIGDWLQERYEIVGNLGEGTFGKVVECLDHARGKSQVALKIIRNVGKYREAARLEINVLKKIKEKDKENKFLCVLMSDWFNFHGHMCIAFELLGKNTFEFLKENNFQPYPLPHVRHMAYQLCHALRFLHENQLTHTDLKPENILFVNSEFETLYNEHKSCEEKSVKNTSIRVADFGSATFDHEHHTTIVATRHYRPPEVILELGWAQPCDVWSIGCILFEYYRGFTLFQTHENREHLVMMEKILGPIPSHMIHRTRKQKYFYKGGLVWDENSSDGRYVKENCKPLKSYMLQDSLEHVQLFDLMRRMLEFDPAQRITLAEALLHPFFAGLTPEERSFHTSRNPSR
T11 sequence (P68400 whole entry): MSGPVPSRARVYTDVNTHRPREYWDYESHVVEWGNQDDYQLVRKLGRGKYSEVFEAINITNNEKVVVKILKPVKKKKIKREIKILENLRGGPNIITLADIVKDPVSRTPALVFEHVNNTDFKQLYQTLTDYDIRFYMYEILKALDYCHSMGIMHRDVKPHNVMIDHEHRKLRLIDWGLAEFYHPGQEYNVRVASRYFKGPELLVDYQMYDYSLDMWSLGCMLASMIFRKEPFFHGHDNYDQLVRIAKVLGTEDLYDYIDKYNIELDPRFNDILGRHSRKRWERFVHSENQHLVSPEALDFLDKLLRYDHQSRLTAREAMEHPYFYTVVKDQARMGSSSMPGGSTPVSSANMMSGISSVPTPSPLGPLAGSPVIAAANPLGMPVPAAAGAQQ
T11 sequence (P67870 whole entry partner): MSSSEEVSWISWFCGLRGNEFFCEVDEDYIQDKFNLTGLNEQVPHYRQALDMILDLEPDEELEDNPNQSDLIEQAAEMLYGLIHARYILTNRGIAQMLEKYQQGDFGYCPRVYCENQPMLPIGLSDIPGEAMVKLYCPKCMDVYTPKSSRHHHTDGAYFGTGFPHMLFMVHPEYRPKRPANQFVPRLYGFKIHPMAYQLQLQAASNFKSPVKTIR

O=C1NCCC12CCN(c1c(Cl)cncc1-c1ccc(N3CCOCC3)cc1)CC2 [Compound 44, 8-(3-Chloro-5-(4-morpholin-4-ylphenyl)pyridin-4-yl)-2,8-diazaspiro[4.5]decan-1-one]
remaining activity at 1 µM (EPHB4): 4%
remaining activity at 1 µM (SRPK2): 10%
remaining activity at 1 µM (ERBB4): -9%
remaining activity at 1 µM (GCK): -9%
inhibition at 10 µM (5-HT1A (h)): 11%
remaining activity at 1 µM (LOK): -1%
remaining activity at 1 µM (WNK2): -4%
remaining activity at 1 µM (PASK): 1%
remaining activity at 1 µM (SAPK4): -2%
remaining activity at 1 µM (TEC ACTIVATED): 4%
remaining activity at 1 µM (CK2): 12%
remaining activity at 1 µM (CRAF): -1%
remaining activity at 1 µM (FMS): -39%
remaining activity at 1 µM (DCAMKL2): 0%
remaining activity at 1 µM (PKD2): 0%
inhibition at 10 µM (A2A (h)): 4%
remaining activity at 1 µM (MRCKBETA): 4%
remaining activity at 1 µM (MKK7BETA): 17%
remaining activity at 1 µM (SAPK2A): -1%
remaining activity at 1 µM (EEF-2K): -8%
remaining activity at 1 µM (PKA): 5%
remaining activity at 1 µM (BRSK1): 5%
remaining activity at 1 µM (FES): 14%
remaining activity at 1 µM (SGK): 16%
inhibition at 10 µM (5-HT2B (h)): -4%
% Inhibition of Control Specific Binding (SKCa channel): -6%
remaining activity at 1 µM (CDK7/CYCLINH/MAT1): -10%
remaining activity at 1 µM (IKKBETA): 3%
remaining activity at 1 µM (PHKGAMMA2): 10%
remaining activity at 1 µM (JNK3): 11%
remaining activity at 1 µM (PIM-1): 1%
remaining activity at 1 µM (EPHA8): -3%
remaining activity at 1 µM (JAK3): -4%
remaining activity at 1 µM (ALK4): 14%
remaining activity at 1 µM (RSK1): 2%
% Inhibition of Control Specific Binding (α1 (non-selective)): -4%
inhibition at 10 µM (ETA (h)): -3%
remaining activity at 1 µM (CLK3): 0%
remaining activity at 1 µM (CDK9/CYCLINT1): -24%
inhibition at 10 µM (5-HT7 (h)): 9%
remaining activity at 1 µM (CLK2): -10%
remaining activity at 1 µM (GRK5): 0%
remaining activity at 1 µM (FLT4): -5%
inhibition at 10 µM (5-HT transporter (h)): 17%
